The results in this text go back to PMC9919513, “A Practical Approach to Bicyclic Carbamoyl Pyridones with Application to the Synthesis of HIV-1 Integrase Strand Transfer Inhibitors” (Molecules, 2023).

Read-outs that look alike come from different tables or passages of the source.

Data set [1] relates to HIV-1 vectors that carry WT IN. The experiment in a line: Single-round HIV-1 replication antiviral assay, wild-type IN. Type of data set: cell-based. The following applies: for EC50: 48 h; for Ratio of the antiviral potencies after and before hydrogenation (WT): EC50 of saturated 7 over EC50 of unsaturated 6, WT IN. As to the method:
The bicyclic metal chelating carbamoyl pyridone moiety is common to second-generation tricyclic INSTIs (3, 4, and 5, Figure 1). Analogs of the current study are simplified analogs that lack a third ring. […] The halogen substitution pattern of the benzylamide moiety can affect inhibitory potencies of INSTIs. We determined the antiviral potencies of our compounds in single round HIV-1 replication assays using viral constructs with wild-type IN [31]. Cytotoxicities were determined as previously described. […] In general, the potencies of bicyclic analogs 6 having an unsaturated bond at the C4 position were insensitive to differences in N-methyl substituents. […] Analogs 6g and 6h represent simplified analogs of DTG (3) and CAB (5), respectively, in which the third ring (C-ring) is opened and having doble bond in B-ring, but lacking α-methyl stereochemistry.
Human embryonic kidney cell culture cell line 293 was acquired from the American Type Culture Collection (ATCC). The human osteosarcoma cell line, HOS, was obtained from Dr. Richard Schwartz (Michigan State University, East Lansing, MI, USA) and grown in Dulbecco’s modified Eagle’s medium (Invitrogen, Carlsbad, CA, USA) supplemented with 5% (v/v) fetal bovine serum, 5% newborn calf serum, and penicillin (50 units/mL) plus streptomycin (50 µg/mL; Quality Biological, Gaithersburg, MD, USA). The transfection vector, pNLNgoMIVR-ΔLUC was made from pNLNgoMIVR-ΔEnv.HSA by removing the HSA reporter gene and replacing it with a luciferase reporter gene between the NotI and XhoI restriction sites. To produce the new IN mutant S230N used in this study, the IN open reading frame was removed from pNLNgoMIVR-ΔENV.LUC by digestion with KpnI and SalI, and the resulting fragment was inserted between the KpnI and SalI sites of pBluescript KS+. Using that construct as the wild-type template, we prepared the following HIV-1 IN mutant S230N using the QuikChange II XL site-directed mutagenesis kit (Agilent Technologies, Santa Clara, CA, USA) protocol. The following sense oligonucleotides were used with matching cognate antisense oligonucleotides (not shown) (Integrated DNA Technologies, Coralville, IA, USA) in the mutagenesis: S230N 5′-[…]-3′. The DNA sequence of the IN mutant S230N construct was verified independently by DNA sequence determination. The mutated IN coding sequences from pBluescript KS+ were then subcloned into pNLNgoMIVR-ΔEnv.LUC (between the KpnI and SalI sites) to produce mutant HIV-1 constructs, which were also checked by DNA sequencing. […]. On the day prior to transfection, 293 cells were plated on 100 mm diameter dishes at a density of 1.5 × 10^6 cells per plate. Next, 293 cells were transfected with 16 µg of pNLNgoMIVR^-ΔLUC and 4 µg of pHCMV-g (obtained from Dr. Jane Burns, University of California, San Diego) using the calcium phosphate method. At approximately 6 h after the calcium phosphate precipitate was added, 293 cells were washed twice with phosphate-buffered saline (PBS) and incubated with fresh media for 48 h. The virus-containing supernatants were then harvested, clarified by low-speed centrifugation, filtrated, and diluted for preparation in antiviral infection assays. On the day prior to the screen, HOS cells were seeded in a 96-well luminescence cell culture plate at a density of 4000 cells in 100 µL per well. On the day of the screen for cellular cytotoxicity determination, cells were treated with compounds from a concentration range of 250 µM to 0.05 µM and then incubated at 37 °C for 48 h. On the day of the screen for antiviral activity infection assays, cells were treated with compounds from a concentration range of 5 µM to 0.0001 µM using 11 serial dilutions and then incubated at 37 °C for 3 h. After compound incorporation and activation in the cell, 100 µL of virus-stock (WT or mutant) diluted to achieve a luciferase signal between 0.2 and 1.5 Relative Luciferase Units (RLUs) was added to each well and further incubated at 37 °C for 48 h. […]

The mark [2] stands for this setting: Human immunodeficiency virus 1, HOS, read-out: EC50, antiviral potency, WT IN, VSV-g-pseudotyped HIV-1 luciferase vector with WT IN, HOS cells, 48 h.
Setting [3] is: read-out: EC50, antiviral potency, WT IN, VSV-g-pseudotyped HIV-1 luciferase vector with WT IN, HOS cells.

The term EC50 denotes the concentration at which the effect is half-maximal. Usually melting point stands for the temperature of the solid-liquid transition.

As for `O=C(NCc1ccc(F)cc1F)c1cn2ccn(CCCCCCO)c(=O)c2c(O)c1=O` [Compound 6c, N-(2,4-Difluorobenzyl)-9-hydroxy-2-(6-hydroxyhexyl)-1,8-dioxo-1,8-dihydro-2H-pyrido [1,2-a]pyrazine-7-carboxamide], the concentration for a half-maximal effect (EC50) in data set [1] (setting [2]) turned out to be 4.8 ± 0.9 nM.
Turning to `O=C(NCc1ccc(F)cc1F)c1cn2ccn(CCCCCO)c(=O)c2c(O)c1=O` [Compound 6d, N-(2,4-Difluorobenzyl)-9-hydroxy-2-(5-hydroxypentyl)-1,8-dioxo-1,8-dihydro-2H-pyrido [1,2-a]pyrazine-7-carboxamide], the concentration for a half-maximal effect (EC50) was roughly 11 nM in data set [1] (setting [2]) and 10.8 ± 1.7 nM in data set [1] (setting [3]).
Taken in the same sequence, the figures for `O=C(NCc1ccc(F)cc1F)c1cn2ccn(CCCCO)c(=O)c2c(O)c1=O` [Compound 6e, N-(2,4-Difluorobenzyl)-9-hydroxy-2-(4-hydroxybutyl)-1,8-dioxo-1,8-dihydro-2H-pyrido [1,2-a]pyrazine-7-carboxamide] were roughly 17 nM and 16.6 ± 2 nM.
In the case of `O=C(NCc1ccc(F)cc1F)c1cn2c(c(O)c1=O)C(=O)N(CCCCCCO)CC2` [Compound 7c, N-(2,4-Difluorobenzyl)-9-hydroxy-2-(6-hydroxyhexyl)-1,8-dioxo-1,3,4,8-tetrahydro-2H-pyrido [1,2-a]pyrazine-7-carboxamide], the melting point is 208 to 210 °C. For the same compound, the “Ratio of the antiviral potencies after and before hydrogenation (WT)” value in data set [1] worked out at 6.6. Moreover, the EC50 in data set [1] (setting [2]) was found to be 31.7 ± 3.8 nM.
For `O=C(NCc1ccc(F)cc1F)c1cn2c(c(O)c1=O)C(=O)N(CCCCO)CC2` [Compound 7e, N-(2,4-Difluorobenzyl)-9-hydroxy-2-(4-hydroxybutyl)-1,8-dioxo-1,3,4,8-tetrahydro-2H-pyrido [1,2-a]pyrazine-7-carboxamide] the same measures were 210 to 215 °C, 4.6 and 75.7 ± 7.4 nM.
